# Molecular target: T1, USP1/UAF1 (Homo sapiens, UniProt O94782)
# T1 construct: purchased R&D Systems
# Test: Deubiquitination assay for USP1/UAF1 (ubiquitin-rhodamine 110 substrate)
# Format: biochemical
# Conditions: 0.5 nM USP1/UAF1, 150 nM ubiquitin-rhodamine, 50% inhibition compared to DMSO control
# Protocol: Deubiquitination assay for USP1/UAF1: compounds described here were tested for their ability to inhibit USP1 deubiquitinase activity in this assay using ubiquitin-rhodamine 110 as the substrate. The assay was conducted in the assay buffer (50 mM Tris-HCl, pH 7.8, 0.5 mM EDTA, 0.1 mg/ml Bovine Serum Albumin, 1 mM DTT, 0.01% Tween-20) in 384 well plates. 0.5 nM USP1/UAF1 (R&D Systems) was incubated with compounds in dose response format for 10 minutes at room temperature. Then the reaction was initiated by addition of 150 nM ubiquitin-rhodamine (R&D Systems). The fluorescence intensity was read after 45 minutes at Ex488/Em535 by CLARIOstar (BMG Labtech). IC50 response curves were plotted.
# T1 sequence (O94782 whole entry): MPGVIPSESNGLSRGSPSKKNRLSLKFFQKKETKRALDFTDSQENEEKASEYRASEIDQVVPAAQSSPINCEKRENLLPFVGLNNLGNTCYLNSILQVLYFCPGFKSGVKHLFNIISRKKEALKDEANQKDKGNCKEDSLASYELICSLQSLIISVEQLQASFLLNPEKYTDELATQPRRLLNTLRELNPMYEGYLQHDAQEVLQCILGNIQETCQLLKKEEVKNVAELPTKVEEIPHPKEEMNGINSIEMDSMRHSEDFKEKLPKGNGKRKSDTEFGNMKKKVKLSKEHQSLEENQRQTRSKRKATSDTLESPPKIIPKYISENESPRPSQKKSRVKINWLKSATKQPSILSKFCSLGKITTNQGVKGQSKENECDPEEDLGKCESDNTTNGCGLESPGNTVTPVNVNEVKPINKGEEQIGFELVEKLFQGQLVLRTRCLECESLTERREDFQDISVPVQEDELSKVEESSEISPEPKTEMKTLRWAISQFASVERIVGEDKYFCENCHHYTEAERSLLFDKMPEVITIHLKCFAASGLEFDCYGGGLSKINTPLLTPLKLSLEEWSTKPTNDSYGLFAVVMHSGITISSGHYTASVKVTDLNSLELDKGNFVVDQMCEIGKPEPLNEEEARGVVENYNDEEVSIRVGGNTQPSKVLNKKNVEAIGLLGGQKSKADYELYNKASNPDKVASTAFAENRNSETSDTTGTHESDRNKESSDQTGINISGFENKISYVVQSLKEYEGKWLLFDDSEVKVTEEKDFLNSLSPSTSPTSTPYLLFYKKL
# T1 sequence (Q8TAF3 whole entry partner): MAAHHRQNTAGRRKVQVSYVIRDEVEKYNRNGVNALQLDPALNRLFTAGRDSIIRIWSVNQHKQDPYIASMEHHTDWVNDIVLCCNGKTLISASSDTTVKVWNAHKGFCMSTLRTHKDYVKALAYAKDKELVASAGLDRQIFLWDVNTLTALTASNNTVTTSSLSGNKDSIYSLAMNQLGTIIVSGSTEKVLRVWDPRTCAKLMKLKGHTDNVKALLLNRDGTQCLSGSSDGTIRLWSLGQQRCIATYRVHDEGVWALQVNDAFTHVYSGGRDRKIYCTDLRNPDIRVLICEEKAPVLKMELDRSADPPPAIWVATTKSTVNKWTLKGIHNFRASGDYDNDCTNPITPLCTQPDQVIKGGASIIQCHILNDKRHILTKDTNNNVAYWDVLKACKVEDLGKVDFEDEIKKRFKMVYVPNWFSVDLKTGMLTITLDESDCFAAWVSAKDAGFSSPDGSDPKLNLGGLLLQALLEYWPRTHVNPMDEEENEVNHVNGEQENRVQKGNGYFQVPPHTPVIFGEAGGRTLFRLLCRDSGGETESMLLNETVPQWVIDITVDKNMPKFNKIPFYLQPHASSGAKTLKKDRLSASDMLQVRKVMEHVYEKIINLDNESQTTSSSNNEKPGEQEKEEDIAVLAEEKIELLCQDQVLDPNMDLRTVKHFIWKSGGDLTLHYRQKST
row,SMILES,IC50
1,"CC(C)n1cc(C(F)(F)F)nc1-c1ccc2cc1OCCCCOc1ncnc(C3CC3)c1-c1ncc3cnn(c3n1)C2 [Example 48, 1^6-cyclopropyl-4^4-(1-isopropyl-4-(trifluoromethyl)-1H-imidazol-2-yl)-2^1H-5,10-dioxa-2(6,1)-pyrazolo[3,4-d]pyrimidina-1(5,4)-pyrimidina-4(1,3)-benzenacyclodecaphane]",100 to 1000 nM
2,"O=c1ccc2cnc3nc2n1Cc1ccc(-c2nc(C(F)(F)F)cn2C2CC2)cc1CCOc1c-3ncnc1C1CC1 [Example 18, 1^6-cyclopropyl-4^4-(1-cyclopropyl-4-(trifluoromethyl)-1H-imidazol-2-yl)-2^7,2^8-dihydro-7-oxa-2(2,8)-pyrido[2,3-d]pyrimidina-1(5,4)-pyrimidina-4(1,2)-benzenacycloheptaphan-2^7-one]",≥ 1000 nM
3,"CC(C)n1cc(C(F)(F)F)nc1-c1ccc2c(c1)OCC1(CC1)COc1ncnc(C3CC3)c1-c1ncc3cnn(c3n1)C2 [Example 12, 6′-cyclopropyl-4′-(1-isopropyl-4-(trifluoromethyl)-1H-imidazol-2-yl)spiro[cyclopropane-1,7′-5,9-dioxa-2(6,1)-pyrazolo[3,4-d]pyrimidina-1(5,4)-pyrimidina-4(1,2)-benzenacyclononaphane]]",100 to 1000 nM
4,"FC(F)(F)c1cn(C2CC2)c(-c2ccc3c(c2)OCCOc2ncnc(C4CC4)c2-c2ncc4ccc(n4n2)C3)n1 [Example 21, (Z)-1^6-cyclopropyl-4^4-(1-cyclopropyl-4-(trifluoromethyl)-1H-imidazol-2-yl)-5,8-dioxa-2(2,7)-pyrrolo[2,1-f][1,2,4]triazina-1(5,4)-pyrimidina-4(1,2)-benzenacyclooctaphane]",≤ 100 nM
5,"CC(C)n1cc(C(F)(F)F)nc1-c1ccc2c(c1)OCCOc1ncnc(C3CC3)c1-c1ncc3ccc(=O)n(c3n1)C2 [Example 16, 1^6-cyclopropyl-4^4-(1-isopropyl-4-(trifluoromethyl)-1H-imidazol-2-yl)-2^7,2^8-dihydro-5,8-dioxa-2(2,8)-pyrido[2,3-d]pyrimidina-1(5,4)-pyrimidina-4(1,2)-benzenacyclooctaphan-2^7-one]",≤ 100 nM
6,"FC(F)(F)c1cc(C2CC2)n(-c2ccc3c(c2)NCCCOc2c(ncnc2C2CC2)-c2ncc4cnn(c4n2)C3)n1 [Example 36, 1-cyclopropyl-4-(5-cyclopropyl-3-(trifluoromethyl)-1H-pyrazol-1-yl)-21H-9-oxa-5-aza-2(6,1)-pyrazolo[3,4-d]pyrimidina-1(5,4)-pyrimidina-4(1,2)-benzenacyclononaphane]",≤ 100 nM
7,"CC(C)n1cc(C(F)(F)F)nc1-c1ccc2cc1CCCCOc1ncnc(C3CC3)c1-c1ncc3cnn(c3n1)C2 [Example 45, 1^6-cyclopropyl-4^4-(1-isopropyl-4-(trifluoromethyl)-1H-imidazol-2-yl)-2^1H-9-oxa-2(6,1)-pyrazolo[3,4-d]pyrimidina-1(5,4)-pyrimidina-4(1,3)-benzenacyclononaphane]",≤ 100 nM
8,CC(C)n1cc(C(F)(F)F)nc1-c1ccc2cc1C#CCCOc1ncnc(C3CC3)c1-c1ncc3cnn(c3n1)C2 [Example 43],100 to 1000 nM
9,"CC(C)n1cc(C(F)(F)F)nc1-c1ccc2c(c1)NCCCOc1ncnc(C3CC3)c1-c1ncc3cnn(c3n1)C2 [Example 8, 1^6-cyclopropyl-4^4-(1-isopropyl-4-(trifluoromethyl)-1H-imidazol-2-yl)-2^1H-9-oxa-5-aza-2(6,1)-pyrazolo[3,4-d]pyrimidina-1(5,4)-pyrimidina-4(1,2)-benzenacyclononaphane]",≤ 100 nM
10,"CC(C)n1cc(C(F)(F)F)nc1-c1ccc2c(c1)OCCCOc1ncnc(C3CC3)c1-c1ncc3ccc(=O)n(c3n1)C2 [Example 17, 1^6-cyclopropyl-4^4-(1-isopropyl-4-(trifluoromethyl)-1H-imidazol-2-yl)-2^7,2^8-dihydro-5,9-dioxa-2(2,8)-pyrido[2,3-d]pyrimidina-1(5,4)-pyrimidina-4(1,2)-benzenacyclononaphan-2^7-one]",≤ 100 nM
11,"FC(F)(F)c1cn(C2CC2)c(-c2ccc3c(c2)/C=C/COc2ncnc(C4CC4)c2-c2ncc4ccc(n4n2)C3)n1 [Example 39, (2^1Z,5E)-1^6-cyclopropyl-4^4-(1-cyclopropyl-4-(trifluoromethyl)-1H-imidazol-2-yl)-8-oxa-2(2,7)-pyrrolo[2,1-f][1,2,4]triazina-1(5,4)-pyrimidina-4(1,2)-benzenacyclooctaphan-5-ene]",100 to 1000 nM
12,"CC(C)n1cc(C(F)(F)F)nc1-c1ccc2c(c1)OCCOc1ncnc(C3CC3)c1-c1ncc3cnn(c3n1)C2 [Example 2, 1^6-cyclopropyl-4^4-(1-isopropyl-4-(trifluoromethyl)-1H-imidazol-2-yl)-2^1H-5,8-dioxa-2(6,1)-pyrazolo[3,4-d]pyrimidina-1(5,4)-pyrimidina-4(1,2)-benzenacyclooctaphane]",≤ 100 nM

# Other lines, results leading:
row,IC50,SMILES
1,≤ 100 nM,"FC(F)(F)c1cn(C2CC2)c(-c2ccc3c(c2)CCCOc2ncnc(C4CC4)c2-c2ncc4ccc(n4n2)C3)n1 [Example 32, (Z)-1^6-cyclopropyl-4^4-(1-cyclopropyl-4-(trifluoromethyl)-1H-imidazol-2-yl)-8-oxa-2(2,7)-pyrrolo[2,1-f][1,2,4]triazina-1(5,4)-pyrimidina-4(1,2)-benzenacyclooctaphane]"
2,≤ 100 nM,"CC(C)n1cc(C(F)(F)F)nc1-c1ccc2c(c1)OCCCNc1c(ncnc1C1CC1)-c1ncc3cnn(c3n1)C2 [Example 10, 1^6-cyclopropyl-4^4-(1-isopropyl-4-(trifluoromethyl)-1H-imidazol-2-yl)-2^1H-5-oxa-9-aza-2(6,1)-pyrazolo[3,4-d]pyrimidina-1(5,4)-pyrimidina-4(1,2)-benzenacyclononaphane]"
3,≤ 100 nM,"FC(F)(F)c1cn(C2CC2)c(-c2ccc3c(c2)OCCOc2ncnc(C4CC4)c2-c2ncc4cnn(c4n2)C3)n1 [Example 13, 1^6-cyclopropyl-4^4-(1-cyclopropyl-4-(trifluoromethyl)-1H-imidazol-2-yl)-2^1H-5,8-dioxa-2(6,1)-pyrazolo[3,4-d]pyrimidina-1(5,4)-pyrimidina-4(1,2)-benzenacyclooctaphane]"
4,≤ 100 nM,"CC(C)n1cc(C(F)(F)F)nc1-c1ccc2c(c1)/C=C/CCOc1ncnc(C3CC3)c1-c1ncc3cnn(c3n1)C2 [Example 55, (E)-16-cyclopropyl-44-(1-isopropyl-4-(trifluoromethyl)-1H-imidazol-2-yl)-21H-9-oxa-2(6,1)-pyrazolo[3,4-d]pyrimidina-1(5,4)-pyrimidina-4(1,2)-benzenacyclononaphan-5-ene4(1,2)-benzenacyclononaphane]"
5,≤ 100 nM,"CC(C)n1cc(C(F)(F)F)nc1-c1ccc2c(c1)NCCCOc1cccc(C3CC3)c1-c1ncc3cnn(c3n1)C2 [Example 26, 1^6-cyclopropyl-4^4-(1-isopropyl-4-(trifluoromethyl)-1H-imidazol-2-yl)-2^1H-9-oxa-5-aza-2(6,1)-pyrazolo[3,4-d]pyrimidina-1,4(1,2)-dibenzenacyclononaphane]"
6,≤ 100 nM,"CC(C)n1cc(C(F)(F)F)nc1-c1ccc2c(c1)NCCOc1ncnc(C3CC3)c1-c1ncc3ccc(=O)n(c3n1)C2 [Example 24, 1^6-cyclopropyl-4^4-(1-isopropyl-4-(trifluoromethyl)-1H-imidazol-2-yl)-2^7,2^8-dihydro-8-oxa-5-aza-2(2,8)-pyrido[2,3-d]pyrimidina-1(5,4)-pyrimidina-4(1,2)-benzenacyclooctaphan-2^7-one]"
7,≤ 100 nM,"CC(C)n1cc(C(F)(F)F)nc1-c1ccc2c(c1)CCCOc1ncnc(C3CC3)c1-c1ncc3cnn(c3n1)C2 [Example 9, 1^6-cyclopropyl-4^4-(1-isopropyl-4-(trifluoromethyl)-1H-imidazol-2-yl)-2^1H-8-oxa-2(6,1)-pyrazolo[3,4-d]pyrimidina-1(5,4)-pyrimidina-4(1,2)-benzenacyclooctaphane]"
8,≤ 100 nM,"CC(C)n1cc(C(F)(F)F)nc1-c1ccc2c(c1)C#CCOc1ncnc(C3CC3)c1-c1ncc3cnn(c3n1)C2 [Example 54, (E)-16-cyclopropyl-44-(1-isopropyl-4-(trifluoromethyl)-1H-imidazol-2-yl)-21H-9-oxa-2(6,1)-pyrazolo[3,4-d]pyrimidina-1(5,4)-pyrimidina-4(1,2)-benzenacyclononaphan-5-ene4(1,2 benzenacyclononaphane]"
9,≤ 100 nM,"CC(C)n1cc(C(F)(F)F)nc1-c1ccc2cc1OCCCOc1ncnc(C3CC3)c1-c1ncc3cnn(c3n1)C2 [Example 38, 1^6-cyclopropyl-4^4-(1-isopropyl-4-(trifluoromethyl)-1H-imidazol-2-yl)-2^1H-5,9-dioxa-2(6,1)-pyrazolo[3,4-d]pyrimidina-1(5,4)-pyrimidina-4(1,3)-benzenacyclononaphane]"
10,≤ 100 nM,"CC(C)n1cc(C(F)(F)F)nc1-c1ccc2cc1/C=C\CCOc1ncnc(C3CC3)c1-c1ncc3cnn(c3n1)C2 [Example 46, (Z)-1^6-cyclopropyl-4^4-(1-isopropyl-4-(trifluoromethyl)-1H-imidazol-2-yl)-2^1H-9-oxa-2(6,1)-pyrazolo[3,4-d]pyrimidina-1(5,4)-pyrimidina-4(1,3)-benzenacyclononaphan-5-ene]"
11,≤ 100 nM,"CC(C)n1cc(C(F)(F)F)nc1-c1ccc2c(c1)OCCNc1ncnc(C3CC3)c1-c1ncc3cnn(c3n1)C2 [Example 11, 1^6-cyclopropyl-4^4-(1-isopropyl-4-(trifluoromethyl)-1H-imidazol-2-yl)-2^1H-5-oxa-8-aza-2(6,1)-pyrazolo[3,4-d]pyrimidina-1(5,4)-pyrimidina-4(1,2)-benzenacyclooctaphane]"
12,≤ 100 nM,"CC(C)n1cc(C(F)(F)F)nc1-c1ccc2c(c1)NCCOc1ncnc(C3CC3)c1-c1ncc3cnn(c3n1)C2 [Example 14, 1^6-cyclopropyl-4^4-(1-isopropyl-4-(trifluoromethyl)-1H-imidazol-2-yl)-2^1H-8-oxa-5-aza-2(6,1)-pyrazolo[3,4-d]pyrimidina-1(5,4)-pyrimidina-4(1,2)-benzenacyclooctaphane]"

# Source: patent US20260285876A1, “MACROCYCLIC COMPOUNDS AS USP1 INHIBITORS” (GUANGDONG NEWOPP BIOPHARMACEUTICALS CO., LTD., priority 2023, published 2026)
